Source: EP1038870A1, “3,3-bis(aryl)-5-((N-(un)substituted)amido)naphthopyrans, their preparation, compositions and (co)polymer matrices containing them” (Corning S.A., priority 1999, dated 2000)

Test: Photochromic properties of lens samples (2 mm, compound in the mass of cross-linked matrix I or II) exposed to UV radiation from a xenon lamp
Type: physicochemical
Details: lens sample
Text: The matrix used in accordance with the present invention may be one of two types:
A homopolymer of the monomer DIACRYL 121 (D121 : tetraethoxylated Bisphenol A dimethylmethacrylate), marketed by Akzo Nobel; or
A copolymer comprised of a 50/50 mixture by weight of D121 (as above) and polyethylene glycol dimethacrylate (Molecular weight = 400) (PEGDMA 400).
10^-5 moles of at least one compound of the invention, together with 0.2% by weight of AMBN (2,2'-azobis(2-methylbutyronitrile)) provided by Akzo, are added to 10 g of formulations able to generate cross-linked matrix I or II. The formulations thus prepared are then poured into a lens mould of 2 mm thickness and then cured by heating at 60°C for 6 hours, followed by heating at 80°C for 2 hours to give a lens sample. The photochromic properties of the lens samples thus obtained were then evaluated as follows : Said lens sample, containing said photochromic compounds in its mass, is exposed to a UV radiation (source: xenon lamp).

[1] = Matrix II (50/50 D121 / PEGDMA 400 copolymer)
[2] = Matrix I (homopolymer of DIACRYL 121)

| Structure (SMILES) | OID : optical induced density (D∞-D0) [1] | T0 : the transmission before exposure to UV [1] | λmax: the maximum absorption in the visible spectrum after UV irradiation [1] | OID : optical induced density (D∞-D0) [2] | T0 : the transmission before exposure to UV [2] | λmax: the maximum absorption in the visible spectrum after UV irradiation [2] | TD15: the transmission after 15 minutes' exposure to UV [1] | TD15: the transmission after 15 minutes' exposure to UV [2] |
| --- | --- | --- | --- | --- | --- | --- | --- | --- |
| COc1ccc(C2(c3ccc(OC)cc3OC)C=Cc3c(c(C(=O)N4CCOCC4)cc4ccccc34)O2)c(OC)c1 [Example 2, 3,3-bis(2,4-dimethoxyphenyl)-5-morpholinocarbonyl-3H-naphtho[2,1-b]pyran] | – | – | – | 1.303 | 85.7% | 514 nm | – | 4.3% |
| COc1ccc(C2(c3ccc(OC)c(OC)c3)C=Cc3c(c(C(=O)N4CCOCC4)cc4ccccc34)O2)c(OC)c1 (stereo not drawn) [Example 7, 3-(2,4-dimethoxyphenyl)-3-(3,4-dimethoxyphenyl)-5-morpholinocarbonyl-3H-naphtho[2,1-b]pyran] | 0.805 | 88.1% | 512 nm | 0.746 | 88.0% | 512 nm | 13.8% | 15.8% |
| COc1ccc(C2(c3ccc(N4CCCCC4)cc3)C=Cc3c(c(C(=O)N4CCCCC4)cc4ccccc34)O2)c(OC)c1 (stereo not drawn) [Example 8, 3-(2,4-dimethoxyphenyl)-3-(p-N-piperidinophenyl)-5-piperidinocarbonyl-3H-naphtho[2,1-b]pyran] | 0.769 | 85.8% | 570 nm | 0.637 | 85.4% | 570 nm | 14.6% | 19.7% |
| COc1ccc(C2(c3ccc(OC)cc3OC)C=Cc3c(c(C(=O)N4CCCCC4)cc4ccccc34)O2)c(OC)c1 [Example 9, 3,3-bis(2,4-dimethoxyphenyl)-5-piperidinocarbonyl-3H-naphtho[2,1-b]pyran] | 0.765 | 89.0% | 504 nm | – | – | – | 15.3% | – |

Now from value to compound, other results behind:

| OID : optical induced density (D∞-D0) [1] | T0 : the transmission before exposure to UV [1] | λmax: the maximum absorption in the visible spectrum after UV irradiation [1] | OID : optical induced density (D∞-D0) [2] | T0 : the transmission before exposure to UV [2] | λmax: the maximum absorption in the visible spectrum after UV irradiation [2] | Structure (SMILES) | TD15: the transmission after 15 minutes' exposure to UV [1] | TD15: the transmission after 15 minutes' exposure to UV [2] |
| --- | --- | --- | --- | --- | --- | --- | --- | --- |
| 0.280 | 88% | 436 nm | – | – | – | C1=CC(c2ccccc2)(c2ccccc2)Oc2ccc3ccccc3c21 [Control, 3,3-bisphenyl-3H-naphtho[2,1-b]pyran, reference compound] | 44% | – |
| – | – | – | 0.315 | 87.9% | 477 nm | Cc1ccc(NC(=O)c2cc3ccccc3c3c2OC(c2ccccc2)(c2ccccc2)C=C3)cc1 [Example 1, 3,3-diphenyl-5-p-tolylcarbamoyl-3H-naphtho[2,1-b]pyran] | – | 42.6% |
| – | – | – | 0.325 | 65.0% | 556 nm | CN(C)c1ccc(C2(c3ccc(N(C)C)c4ccccc34)C=Cc3c(c(C(=O)N4CCOCC4)cc4ccccc34)O2)cc1 (stereo not drawn) [Example 4, 3-(4-dimethylaminophenyl)-3-(4-dimethylaminonapthyl)-5-morpholinocarbonyl-3H-naphtho[2,1-b]pyran] | – | 30.8% |
| 1.634 | 84.0% | 514 nm | 1.063 | 85.6% | 514 nm | COc1ccc(C2(c3ccc(OC)cc3OC)C=Cc3c(c(C(=O)N4CCc5ccccc54)cc4ccccc34)O2)c(OC)c1 [Example 5, 3,3-bis(2,4-dimethoxyphenyl)-5-indolinocarbonyl--3H-naphtho[2,1-b]pyran] | 2.0% | 7.4% |
| 2.146 | 84.0% | – | 1.931 | 85.4% | 510 nm | COc1ccc(C2(c3ccc(OC)cc3OC)C=Cc3c(c(C(=O)N4CCOCC4)cc4ccccc34)O2)cc1 (stereo not drawn) [Example 6, 3-(2,4-dimethoxyphenyl)-3-(4-methoxyphenyl)-5-morpholinocarbonyl-3H-naphtho[2,1-b]pyran] | 0.6% | 1.0% |
